The test has as its system CEM cells HIV-1 protection, formazan growth assay. As to the kind of experiment: NCI AIDS Antiviral Assay. The settings on record: for IC50: measured here: growth of uninfected CEM cells. The method, boiled down: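 Human CEM cells, uninfected and HIV-1-infected, received five drug concentrations, and growth was read by soluble formazan assay. Compounds giving at least 50% protection were retested; reproducible 100% protection defined confirmed active.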

In general, EC50 refers to the concentration that produces a half-maximal response. Usually IC50 stands for the concentration that inhibits the measured activity by half. The low end stands for inhibition by little substance, the high end for a need for much substance.

Calls of active or inactive are those of the source.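 How the source made its calls: active means compounds giving half or more protection of infected cells from virus-caused growth loss, again on retest; inactive means the rest.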

Take `COC(=O)c1oc([N+](=O)[O-])c(-c2ccccc2)c1-c1ccccc1`: the EC50 is above 57.5 µM and the concentration for half-maximal inhibition (IC50) is above 57.5 µM. Take `COc1nc2c(nnn2C2OCC(O)C(O)C2O)c(=O)n1C` (stereo not given): the outcome was inactive. Consider `COC(=O)n1c(C)c(C=O)c2ccc(OC)cc21`, for which the EC50 was above 200 µM and the IC50 turned out to be 34.7 µM.

Take `COc1cc2c(cc1OC)C(=O)/C(=C/c1ccc(O)cc1)CC2`: the result was inactive. On to `COc1ccc(C(O)/C(=N\NC(N)=S)c2nc3ccc([N+](=O)[O-])cc3[nH]c2=O)cc1OC` (stereo not given), for which the EC50 was above 288 µM and the IC50 is above 288 µM.

Take `COc1ccc([N+](=O)[O-])c2c(NCCCN(C)C)c(C)c(C)nc12`: the EC50 is above 200 µM and the IC50 was 91.2 µM. Taken in the same sequence, the figures for `Cc1c(O)nc(-n2[nH]c3c(c2=O)CCCC3)[nH]c1=O` were above 200 µM and above 200 µM. The matching figures for `CC(C)OP(=O)(OC(C)C)C(=NCCN=C(NNc1ccc([N+](=O)[O-])cc1)P(=O)(OC(C)C)OC(C)C)NNc1ccc([N+](=O)[O-])cc1`: above 7.24 µM and above 7.24 µM. On to `CC(=O)N1C=Cc2c(c(C)c3c([nH]c4ccccc43)c2C)C1`, for which the EC50 was above 200 µM and the IC50 was 0.158 µM. Turning to `COc1cc2c(cc1OC)C(CC1=C(c3ccccc3)CN3CCc4cc(OC)c(OC)cc4C3C1)NCC2` (stereo not given), the outcome was inactive. In the case of `Cc1ccc(C(=O)Cc2nc3c([nH]c2=O)c(C)nn3-c2ccccc2)c(C)c1`, the EC50 is above 200 µM and the IC50 was above 200 µM. Turning to `C=C1c2nc3ccccc3n2C=C(c2ccccc2)N1c1ccc(OC)cc1`, the EC50 was above 200 µM and the IC50 was found to be 12.9 µM. Taken in the same sequence, the figures for `O=[N+]([O-])c1cccc(N=Cc2ccccc2O)c1` were above 200 µM and 91.2 µM. Taken in the same sequence, the figures for `CN(C)CC/C=C1\c2ccccc2CSc2ccccc21` were above 200 µM and 32.4 µM.

`c1nc2cscc2c2cscc12`: the result was inactive. Consider `COc1cccc(NC(=O)CC(=O)n2nc(C)c(N=Nc3ccccc3F)c2C)c1`, for which the outcome was inactive. Take `O=C(/C=C/c1ccc(O)c(O)c1)OC(Cc1ccc(O)c(O)c1)C(=O)O` (stereo not given): the EC50 is above 200 µM and the IC50 is 26.3 µM. `Cc1cc(=O)oc2c3c(ccc12)OC(C)(C)[C@H](OC(=O)C12CCC(C)(C(=O)O1)C2(C)C)[C@@H]3OC(=O)C12CCC(C)(C(=O)O1)C2(C)C` (stereo not given in full): the EC50 was 0.0759 µM and the IC50 is above 200 µM.

With `COCCCC(NC(=O)C(CC(C)C)NC(=O)OCc1ccc(OC)cc1)C(=O)OC` (stereo not given), the EC50 was above 200 µM and the IC50 came out at 33.1 µM.

As to `C=CCNC(=S)/N=C1\N=S(C)(=O)c2ccccc21` (stereo not given), the EC50 is above 891 µM and the IC50 is above 891 µM. As for `O=C(CSc1nnc(Cc2ccccc2)o1)Nc1ccccc1Cl`, the EC50 was above 138 µM and the IC50 was above 138 µM. Consider `CC(=O)c1cc([N+](=O)[O-])ccc1OCC(=O)O`, for which the result was inactive. In turn, `NS(=O)(=O)c1cc[c]([Sb]=[O])cc1` registered an EC50 above 200 µM and an IC50 of 61.7 µM. The matching figures for `c1cc(CN2CCNCCNCCNCC2)cc(CN2CCNCCNCCNCC2)c1`: above 200 µM and above 200 µM. Taken in the same sequence, the figures for `COC(=O)C(Cc1ccc2c(c1)CCCC2)Cc1cc2c(cc1C(O)OC)CCC2` (stereo not given) were above 200 µM and 55 µM. As to `CC1(c2ccc(F)cc2)C2C(=O)NC(=O)C1C(=O)NC2=O` (stereo not given), the EC50 is above 871 µM and the IC50 was 575 µM. Taken in the same sequence, the figures for `NC(CCC(=O)O)(C(=O)O)c1ccccc1` (stereo not given) were above 200 µM and above 200 µM. Taken in the same sequence, the figures for `OC(/C=C/c1ccccc1)Cc1nc2ccccc2[nH]1` (stereo not given) were above 38 µM and above 38 µM. Taken in the same sequence, the figures for `COC(=O)c1ccccc1N=Cc1ccc(N(CCC#N)S(=O)(=O)c2ccccc2)cc1` were above 562 µM and 479 µM. As for `COc1ccc(C2C3CCCC(C3=O)C(c3ccc(OC)cc3)N2N=O)cc1` (stereo not given), the EC50 was above 19.1 µM and the IC50 was above 19.1 µM. As for `O=C(CCC(=O)N/N=C/c1ccccc1O)N/N=C/c1ccccc1O`, the result was inactive. Consider `CCN(CC)C1=NS(=O)(=O)c2ccccc2C(SC)=C1C`, for which the EC50 was above 275 µM and the IC50 was above 275 µM. Take `C=CC(c1ccccc1)[C@@]1(OC(C)=O)C(=O)C(=O)OC1C1COC(C)(C)O1` (stereo not given in full): the EC50 was above 200 µM and the IC50 was found to be 6.46 µM. Taken in the same sequence, the figures for `Cc1nnc(N)nc1/C=C\c1ccc(N(C)C)cc1` were above 200 µM and 3.47 µM. For the molecule `C=CCC(C(=O)OCC)C1NCCc2c1[nH]c1ccccc21` (stereo not given), the EC50 is above 45.7 µM and the IC50 was above 45.7 µM. `CCOC(=O)c1ccc(CS(=O)(=O)c2ccccc2C(=O)OCC)c([N+](=O)[O-])c1`: the EC50 is above 85.1 µM and the IC50 was above 85.1 µM. Regarding `N#CCc1nc(-c2cc3c(ccc4ccccc43)oc2=O)cs1`, the EC50 was above 200 µM and the IC50 was 178 µM. The matching figures for `COc1cccc(C2c3cc4c(cc3OC3COC(=O)C32)OCO4)c1OC` (stereo not given): above 200 µM and 120 µM.

For the molecule `Cc1cc(NS(=O)(=O)c2ccc(NC(=O)c3cccc4c(Nc5ccc(S(=O)(=O)Nc6cc(C)on6)cc5)c5ccc(Cl)cc5nc34)cc2)no1`, the EC50 is above 240 µM and the IC50 was found to be 135 µM. Taken in the same sequence, the figures for `N#CCCN(CCC#N)c1ccc(/C=C2\N=C(c3cc([N+](=O)[O-])ccc3Cl)N(S(=O)(=O)c3ccccc3)C2=O)cc1` were above 12.3 µM and above 12.3 µM.

Regarding `CN1C(=O)c2cnc3ccccc3c2C1(O)c1ccccc1` (stereo not given), the EC50 was above 200 µM and the IC50 was above 200 µM. Take `CC1CN2CCc3c([nH]c4ccccc34)C2C[C@@H]1CC(=O)N(C)C` (stereo not given in full): the EC50 is above 191 µM and the IC50 is above 191 µM.

On to `CCOc1ccccc1/C=C1\NC(=O)N(/C=C2\C(=O)Oc3ccccc3C2=O)C1=O`, for which the EC50 is above 200 µM and the IC50 was found to be 87.1 µM. Consider `O=C(NNC(=O)/C(=C/c1cccc([N+](=O)[O-])c1)NC(=O)c1ccccc1)Nc1ccc(Cl)cc1`, for which the EC50 was above 38.9 µM and the IC50 came to 24.5 µM.

As to `COC(=O)C1(C)CCCC2(C)C3CC(CO)C(C(C)C)CC3CCC12` (stereo not given), the EC50 is above 200 µM and the IC50 was above 200 µM. Turning to `COc1cc(CNc2nc3ccccc3nc2C(=O)O)cc(OC)c1OC`, the EC50 was above 200 µM and the IC50 came to 74.1 µM. Consider `Nc1c(N2CCCCC2)c(=O)nc2[nH]/c(=C\c3ccccc3)c(=O)n12`, for which the EC50 is above 200 µM and the IC50 turned out to be 95.5 µM. Regarding `N#Cc1nc(-c2ccsc2)oc1N`, the EC50 was above 200 µM and the IC50 is above 200 µM. With `O=S(=O)(c1ccccc1)C1CC(c2ccccc2)N(c2ccccc2)O1` (stereo not given), the EC50 is above 27.5 µM and the IC50 is above 27.5 µM. On to `O=C(O)C1C2CC(C1C(=O)O)C1C2N1S(=O)(=O)c1ccccc1` (stereo not given), for which the EC50 was above 741 µM and the IC50 is above 741 µM. Regarding `COC(=O)C(CC1CC(=O)N(CCc2c[nH]c3ccccc23)C1)C(=O)OC` (stereo not given), the EC50 is above 191 µM and the IC50 is above 191 µM. For the molecule `O=C1c2ccccc2CCC1C(O)(C(F)(F)F)C(F)(F)F` (stereo not given), the EC50 was above 200 µM and the IC50 was above 200 µM. Consider `CC1=NC(C)CNC(C)(C)CC(C)=NC(C)CNC(C)(C)C1` (stereo not given), for which the EC50 is above 200 µM and the IC50 is above 200 µM. Regarding `O=C(O)c1cc(-n2c(-c3ccccc3)cc3c2CCc2ccccc2-3)ccc1O`, the result was inactive. As for `COc1cc2c(C)cc(=O)oc2cc1O`, the EC50 is above 457 µM and the IC50 was 148 µM.

For the molecule `O=C1CCCc2[nH]c(=O)ccc21`, the result was inactive. Turning to `Nc1c(Cl)cccc1-c1c[nH]cc1Cl`, the EC50 was above 794 µM and the IC50 is above 100 µM. Taken in the same sequence, the figures for `O=[N+]([O-])c1ccccc1S(=O)(=O)Oc1ccccc1` were above 77.6 µM and 47.9 µM. Regarding `O=C(Nc1ccc(F)cc1)C(=O)C(C1OC(=O)c2ccccc21)[N+](=O)[O-]` (stereo not given), the EC50 was above 692 µM and the IC50 came out at 355 µM. Turning to `COc1ccc(/C=C2\N=C3N(Cc4ccccc4)C=C(N)N3C2=O)cc1`, the EC50 is above 200 µM and the IC50 was above 200 µM. Turning to `O=c1oc2ccccc2c(O)c1Cc1ccc(Cc2c(O)c3ccccc3oc2=O)cc1`, the EC50 was above 200 µM and the IC50 was found to be 182 µM. On to `CC(=O)N(C(C)=O)n1c(-c2ccccc2)n[nH]c1=O`, for which the EC50 is above 200 µM and the IC50 is above 200 µM. Consider `C=C1C(=O)O[C@H]2CC(C)C3C(O)CC(O)[C@@]3(C)C[C@H]12` (stereo not given in full), for which the EC50 is above 933 µM and the IC50 was 6.03 µM. The matching figures for `CC1=CC2OC3CC4OC(=O)/C=C/C=C/C(=O)OCCC(C)C(O)C(=O)OCC2(CC1O)C4(C)C31CO1` (stereo not given): above 0.2 µM and 0.00347 µM. Regarding `CCC12CN(C(=O)OC)C3C(Br)C1CCC(=O)C32` (stereo not given), the EC50 is above 200 µM and the IC50 is 178 µM. For `C[Si](C)(C)N1N=NC2C(=O)N(c3ccccc3)C(=O)C21` (stereo not given), the EC50 is above 200 µM and the IC50 was above 200 µM. Regarding `Cc1ccc(S(=O)(=O)c2ccccc2[N+](=O)[O-])cc1`, the EC50 is 14.5 µM and the IC50 was 81.3 µM. Consider `O=C1C(=Cc2cccc(Br)c2)C(=O)c2ccccc21`, for which the EC50 is 15.5 µM and the IC50 was determined as 22.9 µM. The matching figures for `CS(=O)(=O)N(N(CCCl)S(=O)(=O)c1ccccc1)S(C)(=O)=O`: above 126 µM and 79.4 µM. Consider `CC(=O)Nc1ccc(S(=O)(=O)NN(C)S(=O)(=O)c2ccc(C)cc2)cc1`, for which the EC50 was above 18.2 µM and the IC50 was above 18.2 µM. Take `O=C(CCCCCCCCC(=O)OCCCn1cc(C(=O)NC(=O)OCc2ccccc2)c(=O)[nH]c1=O)OCCCn1cc(C(=O)NC(=O)OCc2ccccc2)c(=O)[nH]c1=O`: the EC50 is above 15.8 µM and the IC50 is above 15.8 µM. Consider `CC(=O)NC(CCCNC(=O)OCc1ccccc1)C(=O)NCc1ccccc1` (stereo not given), for which the EC50 is above 170 µM and the IC50 is above 170 µM.
